Source: patent US6436705B1, “Shape stabilized erythrocytes” (The United States of America as represented by the …, priority 1997, dated 2002)
Read-outs that look alike come from different tables or passages of the source.

Columns and labels:
erythrocytes = test: Assay of capacity for shape change (LPC-induced echinocytosis, microscopy); assay type: cell-based, human; details: 5 mM DTBP for 1 h, then 10 μg/ml LPC
Description: Microscopy. Cross-linked and reversed cells were prepared as described in the section on erythrocyte preparation, etc., with the addition of 0.5% bovine serum albumin to the solution prior microscopic examination. Cells were examined using an Nikon Optiphot, equipped with PlanApo 20×objective.
Assay of capacity for shape change. To induce echinocytosis ([…]), erythrocytes were incubated with 10μg/ml LPC for 2 min at room temperature. Erythrocytes were pretreated with 5 mM DTBP for 1 h and then subjected to 10 μg/ml LPC treatment. Microscopic examination of cell morphology was performed. Erythrocytes were pretreated with 5 mM DTBP for 1 h, reversed with 10 mM DTT for 20 min and then subjected to 10 μg/ml LPC treatment. Microscopic examination followed. Erythrocyte response to LPC of normal, cross-linked and reversed cells was compared.

Red cells = test: Oxygen carrying ability (oxygen content by CO-oximeter); assay type: cell-based, human; details: CO-treated
Description: A semi-quantitative measure of oxygen carrying ability by DTBP cross-linked and reversed cells was performed. Red cells cross linked with 5 mM DTBP for different incubation times and cells reversed with DTT (see above) were processed through a membrane oxygenator to replace CO with oxygen. Oxygen saturation of the cells was measured using a CO-oximeter. After the oxygenation, cells were subjected to deoxygenation under a stream of nitrogen for 30 min. Percentage oxygen was measured again by the CO-oximeter. Oxygen binding and releasing properties for cross-linked, reversed and normal cells were compared.
We measured oxygen content (Vol%O2) of cells subjected to cross-linking and reversal with a CO-oximeter 282. […] CO-treated and cross-linked cells with 5 mM DTBP for 5 h, which underwent re-oxygenation in the membrane oxygenator had oxygen content of 7.3 Vol%O2.

Human erythrocytes [1] = test: cells; assay type: cell-based
Description: Packed human erythrocytes from healthy donors were obtained from the National Naval Medical Center (Bethesda, Md.) within 48 h of donation and used within 7 days. Packed erythrocytes were washed twice in phosphate buffer solution (PBS) then re-suspended in PBS (1 vol PBS:1 vol packed cells). The erythrocyte suspension (100 ml) was placed on ice and carbon monoxide (CO) was bubbled through it for 2 hours. Saturation with CO (100%) was achieved under these conditions as detected with a CO-oximeter. Erythrocytes were packed and cross-linked with DTBP at 4° C. for different incubation times (from 1 to 24 h; 9 vol cross-linking solution: 1 vol packed cells). The cross-linking solution was prepared by dissolving DTBP in PBS (pH 7.8). After incubation DTBP was removed by repeated washing of the red cells in PBS (IEC Centra centrifuge for 10 min at 1008×g). Reversal of the cross-linking was carried out at room temperature with the reducing agent dithioerythritol (DTT) at a concentration of 10 mM in PBS (9 vol reducing solution: 1 vol packed cells) for 20 min or as indicated in the figure legends. DTT was removed by repeated washing of the red cells in PBS (IEC Centra centrifuge for 10 min at 1008×g). CO-treatment was reversed at room temperature using a hollow fiber membrane oxygenator model Capiox 308. Erythrocytes were processed through the oxygenator for 1 h. Saturation with oxygen (92%) was reached as detected with a CO-oximeter.
Erythrocytes were cross-linked with DTBP at different concentrations for different incubation times. 1 ml of the erythrocyte suspension was taken out at regular incubation times centrifuged and DTBP was removed (Eppendorf centrifuge for 3 min at 3000×g). Distilled water (1 ml) was added to the remaining packed cells. After 30 min the cells were again centrifugated (Eppendorf centrifuge for 3 min at 3000×g), and the supernatants were processed for hemolysis measurements. For determination of hemolysis the cyanmethemoglobin method was applied (see Brown in “Hematology: principles and procedures” pp. 29-31 (Lea and Febiger, eds., 1984)). Absorbance was measured at 540 nm and percent hemolysis was determined by Equation (1), supra, where the control sample was lysed in distilled water.
Erythrocyte stability in distilled water was tested after crosslinking reversal as well. Red blood cells were first cross-linked with DTBP then treated with DTT at different concentrations (from 1 to 10 mM) for different incubation times (from 5 to 20 min). Hemolysis in distilled water was measured as described above.

Human erythrocytes [2] = test: Osmotic fragility test; assay type: cell-based; details: 5 mM DTBP
Description: An osmotic fragility test (a common clinical test) was performed on erythrocytes cross-linked with 5 mM DTBP for different incubation times and on erythrocytes cross-linked and reversed with DTT. Briefly, 1 ml of the erythrocyte suspension was taken out at regular incubation times, centrifuged, and DTBP or DTT was removed (Eppendorf centrifuge for 3 min at 3000×g). 1 ml of solutions containing buffered sodium sodium chloride at different concentrations (from 1% to 0.1% NaCl in phosphate buffer) were added to the packed cells. After 30 min the samples were centrifugated (Eppendorf centrifuge for 3 min at 3000×g), and the supernatants were processed for hemolysis measurements.

[3] = Homo sapiens, Erythrocyte, 4 h, read-out: hemolysis in distilled water

**Q.** Which results are given for COC(=N)CCSSCCC(=N)OC [DTBP, Dimethyl-3,3′-dithiobispropionimidate]?
**A.** effect on LPC-induced echinocytosis (erythrocytes): completely blocked; oxygen content (Red cells; 5 mM DTBP 5 h, re-oxygenated then deoxygenated with nitrogen): 2.9 Vol%O2; oxygen content (Red cells; 5 mM DTBP for 5 h, re-oxygenated in membrane oxygenator): 7.3 Vol%O2; hemolysis in distilled water (Human erythrocytes [1]; 1 or 3 mM DTBP, even after prolonged incubation times): did not produce cells stable to hemolysis in distilled water; hemolysis at 5000 µM (Human erythrocytes [1]; Homo sapiens, Erythrocyte, 3 h, read-out: hemolysis in distilled water): 100%; hemolysis at 5000 µM (Human erythrocytes [1]; [3]): 88%; hemolysis at 7000 µM (Human erythrocytes [1]; [3]): 21%; hemolysis at 10000 µM (Human erythrocytes [1]; [3]): 0%; hemolysis at 5000 µM (Human erythrocytes [1]; Homo sapiens, Erythrocyte, 5 h, read-out: hemolysis in distilled water): 67%; hemolysis at 5000 µM (Human erythrocytes [1]; Homo sapiens, Erythrocyte, 7 h, read-out: hemolysis after the treatment with DTT): 35%; hemolysis at 5000 µM (Human erythrocytes [1]; Homo sapiens, Erythrocyte, 7 h, read-out: hemolysis in distilled water): 45%; hemolysis at 5000 µM (Human erythrocytes [1]; Homo sapiens, Erythrocyte, 24 h, read-out: hemolysis after the treatment with DTT): 100%; hemolysis at 5000 µM (Human erythrocytes [1]; Homo sapiens, Erythrocyte, 24 h, read-out: hemolysis in distilled water): 10%; stability in the presence of the reducing agent (DTT) (Human erythrocytes [1]; cells with lower degree of stabilization (5 mM DTBP 5 h, 67% lysis in water)): stable in the presence of the reducing agent; NaCl concentration at which hemolysis started (Human erythrocytes [2]; 1 h cross-linked cells): 0.4 % NaCl; NaCl concentration at which total lysis was first measured (Human erythrocytes [2]; 1 h cross-linked cells): 0.1 % NaCl; NaCl concentration at which hemolysis started (Human erythrocytes [2]; 3 h cross-linked cells): 0.30 % NaCl; NaCl concentration at which total lysis was first measured (Human erythrocytes [2]; 3 h cross-linked cells): 0.0 % NaCl
